Test results reported in US10112933B2, “Methods and compositions for treatment of fibrosis” (Baylor College of Medicine, priority 2013, dated 2018).

What follows are compounds tested against T1, Stat1 (pY701) (Homo sapiens, UniProt P42224) (assay: Immunoblot: IFN-γ-mediated phosphorylation of Stat1 in HepG2 cells). Conditions: HepG2, compound 300 μM, 1 hour.
T1 construct: endogenous in cells; host or cells: HepG2
T1 sequence (P42224 1-750): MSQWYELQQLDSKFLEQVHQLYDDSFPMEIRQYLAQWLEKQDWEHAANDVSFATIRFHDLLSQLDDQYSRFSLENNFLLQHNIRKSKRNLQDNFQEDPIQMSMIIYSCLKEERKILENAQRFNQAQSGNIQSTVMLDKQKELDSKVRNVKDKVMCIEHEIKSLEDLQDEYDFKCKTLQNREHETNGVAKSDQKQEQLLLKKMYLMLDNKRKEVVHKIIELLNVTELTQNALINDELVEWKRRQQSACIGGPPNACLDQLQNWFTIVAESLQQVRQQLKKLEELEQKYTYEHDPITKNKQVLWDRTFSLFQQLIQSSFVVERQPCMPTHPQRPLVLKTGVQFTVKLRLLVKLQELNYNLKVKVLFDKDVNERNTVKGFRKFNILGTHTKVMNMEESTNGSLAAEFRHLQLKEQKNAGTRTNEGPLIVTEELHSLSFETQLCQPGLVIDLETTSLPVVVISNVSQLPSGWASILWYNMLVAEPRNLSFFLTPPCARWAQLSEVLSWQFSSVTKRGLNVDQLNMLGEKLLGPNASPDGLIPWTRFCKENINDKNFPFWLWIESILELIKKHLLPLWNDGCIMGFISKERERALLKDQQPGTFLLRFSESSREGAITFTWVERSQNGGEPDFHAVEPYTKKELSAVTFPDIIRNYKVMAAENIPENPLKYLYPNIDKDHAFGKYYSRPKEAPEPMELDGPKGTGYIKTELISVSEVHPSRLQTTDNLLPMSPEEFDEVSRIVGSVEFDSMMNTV
Format: cell-based
Description: HepG2 cells were pretreated with DMSO alone or DMSO containing each of the compounds at a concentration of 300 μM for 60 min. Cells were then stimulated with IFN-γ (30 ng/ml) for 30 min. Protein extracts of cells were separated by SDS-PAGE and immunoblotted serially with antibodies to pStat1, total Stat1 and β-actin. Blots were stripped between each immunoblotting. The results shown are representative of 2 or more experiments.
Immunoblot assay. The human hepatocellular carcinoma cell line (HepG2) was grown in 6-well plates under standard conditions. Cells were pretreated with compounds (0, 1, 3, 10, 30, 100 and 300 uM) for 1 hour then stimulated under optimal conditions with either interferon gamma (IFN-γ; 30 ng/ml for 30 min) to activate Stat1 or interleukin-6 (IL-6; 30 ng/ml for 30 min) to activate Stat3 (30-31). Cultures were then harvested and proteins extracted using high-salt buffer, as described (Shao et al., 2006). Briefly, extracts were mixed with 2× sodium dodecyl sulfate (SDS) sample buffer (125 mmol/L Tris-HCL pH 6.8; 4% SDS; 20% glycerol; 10% 2-mercaptoethanol) at a 1:1 ratio and heated for 5 minutes at 100° C. Proteins (20 μg) were separated by 7.5% SDS-PAGE and transferred to polyvinylidene fluoride (PVDF) membrane (Millipore, Waltham, Mass.) and immunoblotted. Prestained molecular weight markers (Biorad, Hercules, Calif.) were included in each gel. Membranes were probed serially with antibody against Stat1 pY^701 or Stat3 pY^705 followed by antibody against Stat1 or Stat3 (Transduction labs, Lexington, Ky.) then antibody against β-actin (Abcam, Cambridge, Mass.). Membranes were stripped between antibody probing using Restore™ Western Blot Stripping Buffer (Thermo Fisher Scientific Inc., Waltham, Mass.) per the manufacturer's instructions. Horseradish peroxidase-conjugated goat-anti-mouse IgG was used as the secondary antibody (Invitrogen Carlsbad, Calif.) and the membranes were developed with enhanced chemiluminescence (ECL) detection system (Amersham Life Sciences Inc.; Arlington Heights, Ill.).
EXP IIC. Ligand-mediated pStat3 and pStat1 inhibition assays. […] Briefly, human hepatocellular carcinoma cells (HepG2) are grown in 6-well plates and pretreated with compounds (0, 0.1, 0.3, 1, 3, 10, 30, 100 μM) for 1 hour then stimulated under optimal conditions with either interleukin-6 (IL-6; 30 ng/ml for 30 min) to activate Stat3 or interferon gamma (IFN-γ; 30 ng/ml for 30 min) to activate Stat1. Cells are harvested and proteins extracted using high-salt buffer, mixed with 2× sodium dodecyl sulfate (SDS) sample buffer (125 mmol/L Tris-HCL pH 6.8; 4% SDS; 20% glycerol; 10%2-mercaptoethanol) at a 1:1 ratio then heated for 5 minutes at 100° C. Proteins (20 μg) are separated by 7.5% SDS-PAGE and transferred to polyvinylidene fluoride (PVDF) membrane (Millipore, Waltham, Mass.) and immunoblotted. Membranes are probed serially with antibody against Stat1 pY701 or Stat3 pY705 followed by antibody against Stat1 or Stat3 (Transduction labs, Lexington, Ky.) then antibody against β-actin (Abcam, Cambridge, Mass.). Membranes are stripped between antibody probings using Restore™ Western Blot Stripping Buffer (Thermo Fisher Scientific Inc., Waltham, Mass.) per the manufacturer's instructions. Horseradish peroxidase-conjugated goat-anti-mouse IgG is used as the secondary antibody (Invitrogen Carlsbad, Calif.) and the membranes are developed with enhanced chemiluminescence (ECL) detection system (Amersham Life Sciences Inc.; Arlington Heights, Ill.). Band intensities are quantified by densitometry. The value of each pStat3 band is divided by its corresponding total Stat3 band intensity; the results are normalized to the DMSO-treated control value. This value was plotted as a function of the log compound concentration. The best-fitting curve is determined using 4-Parameter Logistic Model/Dose Response/XLfit 4.2, IDBS software and was used to calculate the IC50 value.

Row | SMILES | Stat1 phosphorylation after IFN-γ stimulation
1 | O=C(O)c1ccc(C=CC(=O)c2ccc3c(c2)OCCO3)cc1 [Cpd3, 4-[3-(2,3-dihydro-1,4-benzodioxin-6-yl)-3-oxo-1-propen-1-yl]benzoic acid] | did not
2 | CCOc1cc(C=C2C(=O)c3ccccc3C2=O)cc(Cl)c1OCc1cccc(C(=O)O)c1 [Cpd3-2, 3-({2-chloro-4-[(1,3-dioxo-1,3-dihydro-2H-inden-2-ylidene)methyl]-6-ethoxyphenoxy}methyl)benzoic acid] | did not
3 | CCN1C(=O)C(=Cc2ccc(-c3cc(C(=O)O)ccc3Cl)o2)C(=O)N(CC)C1=S [Cpd30-12, 4-chloro-3-{5-[(1,3-diethyl-4,6-dioxo-2-thioxotetrahydro-5(2H)-pyrimidinylidene)methyl]-2-furyl}benzoic acid] | blocked Stat1 phosphorylation
